{"source": "patent US20050100940A1", "about": "“Novel FDRG protein and nucleic acid molecules and uses therefor” (Millennium Pharmaceuticals, Inc., priority 1998, published 2005)", "key": {"[1]": {"system": "lean or ob/ob mice", "test": "Intraperitoneal leptin administration versus pair-fed mice, FDRG expression in brown fat", "assay_type": "in vivo, mouse", "details": "12.5 mg/kg leptin i.p. twice daily", "procedure": "In this study, 10 week old lean or ob/ob mice were divided into three groups. The first group was the control, intraperitoneally injected with 1.5 ml PBS twice daily. […] The third group, the pair-fed group, was diet restricted to match the amount of food intake by the leptin-injected group, and was also injected with PBS. The animals were sacrified at the end of one week. […] That may reflect a fundamental difference in leptin-induced dietary restriction versus externally imposed restriction, or may be consistent with a further downstream effect, e.g., leptin-mediated suppression of FDRG upregulation that would ordinarily result from reduced food intake."}, "[2]": {"system": "FDRG mRNA in NIH3T3 fibroblasts stably expressing PPARγ", "test": "Northern blot of FDRG mRNA in NIH3T3 fibroblasts stably expressing PPARγ", "assay_type": "cell-based, murine", "procedure": "NIH3T3 fibroblasts stably expressing PPARγ were treated with 10 μg/ml pioglitazone for 0, 2, and 4 hours."}, "[3]": {"system": "Male Zucker diabetic fatty (fa/fa) rats", "test": "Chronic troglitazone treatment of Zucker diabetic fatty rats, Northern blots of white adipose tissue", "assay_type": "in vivo, rat", "details": "6 mg/kg/day in food, after 4 and 20 weeks of treatment", "procedure": "This experiment describes analysis of FDRG mRNA levels in rats following chronic troglitazone treatment to determine if FDRG expresion is regulated by PPARγ in vivo. Male Zucker diabetic fatty (fa/fa) rats were treated with 6 mg/kg/day (1.2% w/v) troglitazone or placebo admixed with food starting at 6 weeks of age and continuing until 26 weeks. […] Northern blots were performed on RNA isolated from white adipose tissue of treated and untreated animals, four from each group, after 4 and 20 weeks of treatment. […] This was true even when normalized to aP2, a fat cell marker. Glut4 mRNA was also found to be elevated, in agreement with published reports by other groups. Ribosomal-associated 36B4 served as a loading control."}}, "data": [{"compound": "leptin: a protein secreted by fat cells, metabolic hormone", "values": [{"measurement": "Dietary intake", "setting": "[1]", "result": "decrease in dietary intake"}, {"measurement": "FDRG expression in brown fat (rise seen with restriction of caloric intake)", "setting": "[1]; one week, versus pair-fed group", "result": "this rise is not seen"}]}, {"compound": "CCc1ccc(CCOc2ccc(CC3SC(=O)NC3=O)cc2)nc1", "note": "(stereo not drawn) [pioglitazone]", "values": [{"measurement": "Increase in FDRG mRNA", "setting": "[2]; 10 μg/ml pioglitazone, within two hours, versus untreated cells", "result": "≥ 10", "unit": "fold"}]}, {"compound": "Cc1c(C)c2c(c(C)c1O)CCC(C)(COc1ccc(CC3SC(=O)NC3=O)cc1)O2", "note": "(stereo not drawn) [troglitazone]", "values": [{"measurement": "FDRG expression in vivo, upregulation versus controls", "setting": "[3]", "result": "3-5 fold"}]}, {"compound": "C[C@@H]1C[C@@H]([C@H](O)CC2CC(=O)NC(=O)C2)C(=O)[C@@H](C)C1", "note": "[cycloheximide]", "values": [{"measurement": "Effect on FDRG mRNA by itself", "setting": "[2]; 5 μg/ml cycloheximide alone", "result": "causes a rise in FDRG mRNA"}, {"measurement": "Effect of pre-treatment on pioglitazone induction of FDRG mRNA", "setting": "[2]; pre-treatment with 5 μg/ml cycloheximide, then 10 μg/ml pioglitazone", "result": "does not block this induction"}]}]}
